Like-named read-outs stand apart in the source and are kept apart here.
Experiments:
[1] = Cytotoxicity assay on MRC-5 fibroblasts; type: cell-based; settings: human; for CC50 at 3 day: MRC-5SV2 embryonic lung fibroblasts, Table 1, mean and SEM of two independent experiments, highest concentration 64 μM, read-out: MRC-5 off-target cytotoxicity (CC50); for IC50 at 3 day: MRC-5SV2 human embryonic lung fibroblasts, Table 2, two independent repeat experiments
Description: MRC-5SV2 (Sigma-Aldrich/ECACC, catalogue number 84100401) human embryonic lung fibroblasts were used to perform cytotoxicity assays. The cells were cultured in minimum essential medium (MEM, Life Technologies) with Earle's salt medium, supplemented with L-glutamine, NaHCO3 and 5% inactivated fetal bovine serum (iFBS). Cells were seeded at 1.5×10^4 cells/well and 4-fold compound dilutions were immediately added with a highest in-test concentration of 64 μM. After a 3-day incubation, resazurin (Sigma-Aldrich) was added to each well (final concentration of 10 μg mL^−1), and cell viability was assessed by fluorescent reading (Tecan®, GENios) following 4 h of incubation with resazurin (37° C./5% CO2). The results were expressed as percentage reduction in cell growth/viability compared to control wells and the 50% cytotoxic concentration (CC50) was calculated for each of the compounds.

T. brucei (Squib 427) = assay: In vitro drug susceptibility assay, T. brucei; type: cell-based; settings: Trypanosoma brucei
Description: (§1) Drug susceptibility assays with T. brucei (Squib 427), T. evansi type A (RoTat 1.2) and T. equiperdum (BoTat 1.1) were performed under similar conditions. Parasites were cultured in HMI-9 culture medium supplemented with 10% iFBS. To determine in vitro susceptibility of the abovementioned Trypanosoma species, 10 concentrations of a 4-fold dilution series (with a highest in-test concentration of 64 μM) was prepared for each compound, and parasites were seeded at 1.5×10^4 parasite/well. After 72 h of drug exposure at 37° C. with 5% CO2, resazurin was added to the wells (final concentration of 10 μg mL^−1), followed by another incubation for 24 h. Cell viability was determined by fluorescence reading (Tecan®, GENios) and 50% inhibitory concentration (IC50) was calculated for each compound.

T. vivax (ILRAD700) = assay: Ex vivo drug susceptibility assay, T. vivax; type: cell-based; settings: Trypanosoma vivax
Text: (§2) T. congolense (IL3000), the isometamidium (ISM)-resistant T. congolense strain (MSORO M7H), T. evansi type A (RoTat 1.2), T. evansi type B (KETRI 2479) and T. equiperdum (BoTat 1.1) used for in vitro, ex vivo and in vivo experiments were kindly provided by the Institute of Tropical Medicine (ITM), and T. vivax (ILRAD700) and T. congolense (TC13) used for ex vivo and in vivo experiments, were kindly provided by the University of Brussel (VUB).
(§3) Ex Vivo Drug Susceptibility Assays for T. vivax, T. congolense ISM-Resistant, and T. evansi Type B
(§4) For Trypanosoma species/strains that were not adapted to culture conditions, donor mice were infected intraperitoneally with 10^4 parasites. Around day 5-6 post infection, blood was collected via cardiac puncture and parasites were isolated using mini-anion exchange centrifugation technique (mAECT). 4-fold dilutions of the test compounds were prepared with the highest concentration of 64 μM, and parasites were seeded at 1×10^5 parasite/well. Following 24 h of drug exposure at 37° C. and 5% CO2, resazurin was added to the wells and plates were incubated (37° C./5% CO2) for another 24 h. Cell viability was determined by fluorescence reading (Tecan®, GENios), and IC50 values were calculated by non-linear regression (dose-response curve with variable slope) using Prism 8.0 (GraphPad Software Inc., San Diego, CA, USA).

T. congolense (IL3000) = assay: In vitro drug susceptibility assay, T. congolense; type: cell-based; settings: Trypanosoma congolense; Table 2; two independent repeat experiments
Description: Drug susceptibility assays for T. congolense (IL3000) were performed with parasites cultured in HMI-9 medium supplemented with 15% horse serum. Parasites were seeded at a concentration of 1.5×10^4 parasite/well and exposed to a 4-fold compound dilution series starting at a highest in-test concentration of 64 μM. Plates were incubated for 72 h at 34° C. and 5% CO2, followed by the addition of resazurin (Sigma, Aldrich) and a further incubation period of 24 h. Cell viability was quantified by fluorescence reading (Tecan®, GENios), and IC50 values were calculated by non-linear regression (dose-response curve with variable slope) using Prism 8.0 (GraphPad Software Inc., San Diego, CA, USA).

[2] = system: isometamidium (ISM)-resistant T. congolense strain (MSORO M7H); assay: Ex vivo drug susceptibility assay, T. congolense ISM-resistant; type: cell-based; settings: Trypanosoma congolense; Table 2; two independent repeat experiments; read-out: IC50 T. congolense ISM-R
Text: as §2, §3, §4

[3] = system: T. evansi type A (RoTat 1.2); assay: In vitro drug susceptibility assay, T. evansi type A; type: cell-based; settings: Table 2; two independent repeat experiments; read-out: IC50 T. evansi (type A)
Description: as §1

[4] = system: T. evansi type B (KETRI 2479); assay: Ex vivo drug susceptibility assay, T. evansi type B; type: cell-based; settings: Table 2; two independent repeat experiments
Text: as §2, §3, §4

[5] = system: T. equiperdum (BoTat 1.1); assay: In vitro drug susceptibility assay, T. equiperdum; type: cell-based; settings: Trypanosoma equiperdum; Table 2; two independent repeat experiments
Description: as §1

[6] = In vitro metabolic stability, mouse liver S9; type: in vitro ADME; settings: for metabolic stability in mouse liver microsomes: mouse liver S9, phase-I, without 1-ABT; for effect of 1-aminobenzotriazole (1-ABT) on phase-I metabolic decay: mouse microsome pre-incubated with 1-ABT
Description: The metabolic stability of selected compounds was determined in the presence of mice, horse, and bovine liver microsome fractions (S9) through phase-I (CYP450 and NADPH dependent enzymes) and Phase-II (UGT enzymes) metabolisms. Samples were collected after 0, 15, 30, and 60 minutes of incubation and the corresponding loss of parent compound was determined via liquid chromatography (UPLC) (Waters Aquity™) coupled with tandem quadrupole mass spectrometry (MS^2) (Waters Xevo™), equipped with an electrospray ionization (ESI) interface and operated in multiple reaction monitoring (MRM) mode.

[7] = system: T. B. brucei AnTAR1.1 PPYRE9; assay: Bioluminescent T. brucei late curative mouse model; type: in vivo, female Swiss mice; settings: single-dose i.p. 50 mg kg−1
Description: Female Swiss mice (BW˜20-24 g; Janvier Labs, France) were randomly allocated to group of 3 animals and were intraperitoneally infected with 2×10^3 T. B. brucei AnTAR1.1 PPYRE9 derived from a heavily infected donor mouse. FH15967 was formulated in 10% (v/v) polyethylene glycol 400 (PEG400) in water at 2 mg mL^−1 and was administrated to separate groups as single dose s.i.d. i.p. at 50 mg kg-1 (n=3), and b.i.d i.p. at 50 mg kg^−1 (n=3). The reference drug diminazene aceturate was formulated in PBS at 2.5 mg mL^−1 and administrated s.i.d i.p. as a single dose at 10 mg kg^−1. Treatment was initiated at 3 dpi when parasitemia reached 10^6 parasites mL^−1, and parasitemia was microscopically determined via Neubaur improved haemocytometer on a daily basis until 7 dpi. Bioluminescent images were obtained at 3, 5 and 7 dpi to determine parasite burdens in the body. Accordingly, D-luciferin was injected i.p. at 15 mg kg^−1, animals were anaesthetised using isoflurane, and luminescent signals were acquired from both the dorsal and ventral sides of the animals. […] BLI images that obtained from IVIS Spectrum In vivo Imaging System (Perkin Elmer) were quantified with Living Image V4.3.1 SoftWoRx Suite 2.0 for microscopy, then processing using the Fiji software.

[8] = Table 1, mean and SEM of two independent experiments, read-out: T. brucei in vitro activity (IC50)
[9] = Table 2, two independent repeat experiments, read-out: IC50 T. brucei
[10] = Table 1, mean and SEM of two independent experiments, read-out: T. vivax in vitro activity (IC50)
[11] = Table 2, two independent repeat experiments, read-out: IC50 T. vivax

Row | IC50 (T. brucei (Squib 427); [8]) [nM] | IC50 (T. brucei (Squib 427); [9]) [nM] | IC50 (T. vivax (ILRAD700); [10]) [nM] | IC50 (T. vivax (ILRAD700); [11]) [nM] | IC50 (T. congolense (IL3000)) [nM] | IC50 [3] [nM] | IC50 [4] [nM] | IC50 [5] [nM] | metabolic stability in mouse liver microsomes [6] | effect of 1-aminobenzotriazole (1-ABT) on phase-I metabolic decay [6] | Compound | CC50 at 3 day [1] [nM] | IC50 at 3 day [1] [nM] | IC50 [2] [nM] | parasitemia decline by bioluminescent imaging and signal quantification ([7]; even faster than the diminazene aceturate reference group) | blood parasitemia ([7]; until day 7 post infection)
1 | 440 ± 1 | 490 ± 100 | 5 ± 10 | 4 ± 2 | 43 ± 8 | 760 ± 30 | 16 ± 3 | 40 ± 0.2 | phase-I metabolic degradation | adequately block phase-I metabolic decay | CSc1ncnc2c1ccn2[C@@H]1O[C@H](CO)[C@@H](O)[C@H]1O [FH15961/CL5565] | > 64000 | > 64000 | 430 ± 20 | – | –
2 | 34 ± 1 | 34 ± 1 | 34 ± 4 | 34 ± 4 | 180 ± 8 | 100 ± 5 | 14 ± 4 | 25 ± 4 | phase-I metabolic degradation | adequately block phase-I metabolic decay | C=CCSc1ncnc2c1ccn2[C@@H]1O[C@H](CO)[C@@H](O)[C@H]1O [FH15963, 4-S-allyl-N7-(β-D-ribofuranosyl)pyrrolo[2,3-d]pyrimidine] | > 64000 | > 64000 | 140 ± 50 | – | –

Row | Compound | IC50 (T. brucei (Squib 427); [8]) [nM] | IC50 (T. brucei (Squib 427); [9]) [nM] | IC50 (T. vivax (ILRAD700); [10]) [nM] | IC50 (T. vivax (ILRAD700); [11]) [nM] | IC50 (T. congolense (IL3000)) [nM] | IC50 [3] [nM] | IC50 [4] [nM] | IC50 [5] [nM] | metabolic stability in mouse liver microsomes [6] | effect of 1-aminobenzotriazole (1-ABT) on phase-I metabolic decay [6] | CC50 at 3 day [1] [nM] | IC50 at 3 day [1] [nM] | IC50 [2] [nM] | parasitemia decline by bioluminescent imaging and signal quantification ([7]; even faster than the diminazene aceturate reference group) | blood parasitemia ([7]; until day 7 post infection)
3 | OC[C@H]1O[C@@H](n2ccc3c(Sc4ccccc4)ncnc32)[C@H](O)[C@@H]1O [FH15967, 4-S-phenyl-N7-(β-D-ribofuranosyl)pyrrolo[2,3-d]pyrimidine] | 31 ± 8 | 31 ± 8 | 44 ± 5 | 44 ± 5 | 100 ± 20 | 33 ± 6 | 18 ± 6 | 26 ± 5 | phase-I metabolic degradation | adequately block phase-I metabolic decay | > 64000 | > 64000 | 180 ± 9 | rapid parasitemia decline | negative blood parasitemia
